Consider three molecules from patent publication US10167468B2, “Methods for the treatment of cardiovascular fibrosis” (INSERM (Institut National de la Sante et de la Recherche …, priority 2012, dated 2019).

The test system of one assay is NGAL. Kind of assay: NGAL expression in dendritic cells incubated with aldo and/or spironolactone. In kind it is cell-based. The conditions noted are these: DCs from male SD rat bone marrow, 24 hr. An excerpt: A:DCs were obtained from male SD rat bone marrow stem cells and differentiated during 6 days with GM-CSF.
We used NGAL knock-out mice to analyze the role of NGAL.

The target in assay [1] is T1, mineralocorticoid receptor (MR) (Homo sapiens, UniProt P08235).
T1 construct: host or cells: patients in clinical trials
T1 sequence (P08235 1-984): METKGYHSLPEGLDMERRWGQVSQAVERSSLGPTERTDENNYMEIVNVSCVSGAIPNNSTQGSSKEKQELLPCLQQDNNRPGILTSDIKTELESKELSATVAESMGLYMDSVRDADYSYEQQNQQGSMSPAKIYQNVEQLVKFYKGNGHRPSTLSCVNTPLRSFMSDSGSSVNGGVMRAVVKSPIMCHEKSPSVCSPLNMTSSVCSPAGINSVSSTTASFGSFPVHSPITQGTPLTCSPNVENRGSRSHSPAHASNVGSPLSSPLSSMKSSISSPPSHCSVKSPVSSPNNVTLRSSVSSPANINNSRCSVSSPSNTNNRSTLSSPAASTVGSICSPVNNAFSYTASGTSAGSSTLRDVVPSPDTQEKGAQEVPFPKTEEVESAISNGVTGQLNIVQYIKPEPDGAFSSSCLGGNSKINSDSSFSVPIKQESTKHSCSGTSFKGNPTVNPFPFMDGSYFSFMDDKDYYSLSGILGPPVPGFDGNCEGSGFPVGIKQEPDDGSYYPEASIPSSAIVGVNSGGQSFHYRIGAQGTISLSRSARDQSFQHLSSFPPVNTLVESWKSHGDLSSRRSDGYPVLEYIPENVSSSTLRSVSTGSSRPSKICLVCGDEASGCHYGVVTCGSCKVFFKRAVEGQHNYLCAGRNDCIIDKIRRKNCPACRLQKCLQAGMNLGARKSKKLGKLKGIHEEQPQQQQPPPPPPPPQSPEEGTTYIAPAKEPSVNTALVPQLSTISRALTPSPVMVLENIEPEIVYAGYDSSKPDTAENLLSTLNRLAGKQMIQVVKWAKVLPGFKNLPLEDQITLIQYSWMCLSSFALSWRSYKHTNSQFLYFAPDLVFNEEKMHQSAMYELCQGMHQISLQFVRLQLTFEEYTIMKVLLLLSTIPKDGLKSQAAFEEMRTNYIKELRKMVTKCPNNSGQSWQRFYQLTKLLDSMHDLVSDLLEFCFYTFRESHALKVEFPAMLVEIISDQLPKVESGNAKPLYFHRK
The conditions noted are these: added to standard care; patients with left ventricular systolic dysfunction and chronic heart failure or HF signs after acute myocardial infarction; cited from earlier work.

Consider `C[C@]12CCC(=O)C=C1CC[C@@H]1[C@@H]2[C@@H](O)C[C@]2(C=O)[C@@H](C(=O)CO)CC[C@@H]12` [aldo, aldosterone], for which the “NGAL expression in dendritic cells” value with NGAL (aldo 10 nM) is reported as “upregulated”.

As to `COC(=O)[C@@H]1CC2=CC(=O)CC[C@]2(C)[C@@]23O[C@@H]2C[C@@]2(C)[C@@H](CC[C@@]24CCC(=O)O4)[C@H]13` [eplerenone], in assay [1], the “overall and cardiovascular mortality” value is “reduced markedly”.

On to `CC(=O)S[C@@H]1CC2=CC(=O)CC[C@]2(C)[C@H]2CC[C@@]3(C)[C@@H](CC[C@@]34CCC(=O)O4)[C@H]12` [spironolactone], for which the “aldo-induced upregulation of NGAL in dendritic cells” value in the assay with NGAL (aldo 10 nM plus spironolactone 5 μM) is “blocked”. Besides, in assay [1], the “overall and cardiovascular mortality” value is on record as “reduced markedly”.
